Experimental data: article PMC10850047, “Exploring the impact of PEGylation on pharmacokinetics: a size-dependent effect of polyethylene glycol on prostate-specific membrane antigen inhibitors” (EJNMMI Research, 2024)

Tests used:
LNCaP cells = test: Uptake and internalization in LNCaP cells; type: cell-based, human; conditions: 120 min incubation, normalized to 10^6 cells
Description: LNCaP prostate cancer cell line obtained from the American Type Culture Collection (ATCC, Manassas, VA) was used for cell affinity studies. […] The supernatant was disposed, and the cell pellet was resuspended in a culture medium, and LNCaP cells (150,000 cells/well) were counted with a hemocytometer and seeded in poly-L-lysine-coated 24-well plates used in cell binding studies. The cells were then allowed to grow at 37 °C for 48 h. PC3-PIP cells provided by Professor Xiaoyuan Chen (Singapore) require additional Puromycin (2 µg/ml) in addition to the appealed culture conditions.

PSMA = target: T1, PSMA (Homo sapiens, UniProt Q04609); conditions: LNCaP cells, competition with [68Ga]Ga-PSMA-11; cited from earlier work
T1 construct: host or cells: LNCaP

[1] = parameters: method as in PMID 36696174; conditions: at 2 h; cited from earlier work
[2] = system: LNCaP tumor-bearing NOD/SCID mice; test: Biodistribution in LNCaP tumor model; conditions: for Blood uptake / Bone uptake / Brain uptake / Heart uptake / Kidney uptake / Liver uptake / Lung uptake / Muscle uptake / Salivary uptake / Small int (small intestine) uptake / Spleen uptake / Stomach uptake / Tumor uptake: mean ± SD (n=5)

T1 sequence (Q04609 whole entry): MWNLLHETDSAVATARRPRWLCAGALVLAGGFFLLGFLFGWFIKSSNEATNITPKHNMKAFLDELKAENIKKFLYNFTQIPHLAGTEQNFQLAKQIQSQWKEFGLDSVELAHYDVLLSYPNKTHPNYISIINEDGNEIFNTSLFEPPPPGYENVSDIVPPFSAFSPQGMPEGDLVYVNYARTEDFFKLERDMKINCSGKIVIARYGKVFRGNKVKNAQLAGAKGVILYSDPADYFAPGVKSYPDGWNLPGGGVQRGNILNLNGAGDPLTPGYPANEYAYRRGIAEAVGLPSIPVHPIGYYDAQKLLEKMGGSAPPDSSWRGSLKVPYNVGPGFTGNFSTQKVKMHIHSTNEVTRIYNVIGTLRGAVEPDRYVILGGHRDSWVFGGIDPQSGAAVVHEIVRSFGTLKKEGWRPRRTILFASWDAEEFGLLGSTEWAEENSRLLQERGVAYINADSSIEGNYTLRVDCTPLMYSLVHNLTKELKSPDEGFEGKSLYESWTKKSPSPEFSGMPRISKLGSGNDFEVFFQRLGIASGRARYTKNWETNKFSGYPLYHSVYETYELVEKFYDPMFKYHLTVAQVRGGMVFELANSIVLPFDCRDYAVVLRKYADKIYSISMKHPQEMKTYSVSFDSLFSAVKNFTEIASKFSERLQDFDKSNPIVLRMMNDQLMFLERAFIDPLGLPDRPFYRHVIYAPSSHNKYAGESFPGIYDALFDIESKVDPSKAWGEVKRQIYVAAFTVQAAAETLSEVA

## O=C([O-])CN1CCN(CC(=O)[O-])CCN(CC(=O)NCCCCCN(CCCC[C@H](NC(=O)N[C@@H](CCC(=O)O)C(=O)O)C(=O)O)C(=O)C2c3ccccc3-c3ccccc32)CCN(CC(=O)[O-])CC1.[68Ga+3] [[^68Ga]Ga-Flu-1]
LNCaP cells
  Internalization in LNCaP cells: 21.3 ± 0.13%
  Uptake in LNCaP cells: 34.57 ± 4.14%
PSMA
  IC50: 9.62 ± 1.7 nM
[1]
  Kidney uptake, folds greater than that in the tumor: 3 folds
[2]; 30 min
  Tumor/Blood ratio: 5.94±1.41
  Tumor/Heart ratio: 17.48±3.23
  Tumor/Kidney ratio: 0.14±0.12
  Tumor/Liver ratio: 15.57±2.89
  Tumor/Salivary ratio: 5.63±1.11
[2]; 30 min p.i.
  Blood uptake: 5.53±2.11 %ID/g
  Bone uptake: 0.66±0.22 %ID/g
  Brain uptake: 0.18±0.10 %ID/g
  Heart uptake: 1.88±0.46 %ID/g
  Kidney uptake: 240.00 ± 34.68 %ID/g
  Liver uptake: 2.11±0.52 %ID/g
  Lung uptake: 5.77±2.01 %ID/g
  Muscle uptake: 0.93±0.34 %ID/g
  Salivary uptake: 5.84±3.65 %ID/g
  Small int (small intestine) uptake: 2.52±0.60 %ID/g
  Spleen uptake: 9.45±5.92 %ID/g
  Stomach uptake: 1.84±0.31 %ID/g
  Tumor uptake: 32.86 ± 12.02 %ID/g
[2]; 60 min
  Tumor/Blood ratio: 11.1±1.97
  Tumor/Heart ratio: 44.13±4.22
  Tumor/Kidney ratio: 0.22±0.21
  Tumor/Liver ratio: 33.17±3.09
  Tumor/Salivary ratio: 17.24±3.54
[2]; 60 min p.i.
  Blood uptake: 4.69±2.33 %ID/g
  Bone uptake: 0.29±0.18 %ID/g
  Brain uptake: 0.11±0.10 %ID/g
  Heart uptake: 1.18±0.36 %ID/g
  Kidney uptake: 240.01±31.08 %ID/g
  Liver uptake: 1.57±0.60 %ID/g
  Lung uptake: 3.27±0.84 %ID/g
  Muscle uptake: 0.44±0.25 %ID/g
  Salivary uptake: 3.02±1.27 %ID/g
  Small int (small intestine) uptake: 1.89±1.10 %ID/g
  Spleen uptake: 7.25±3.39 %ID/g
  Stomach uptake: 0.86±0.11 %ID/g
  Tumor uptake: 52.07 ± 14.83 %ID/g
[2]; 120 min
  Tumor/Blood ratio: 13.07±2.56
  Tumor/Heart ratio: 69.16±5.69
  Tumor/Kidney ratio: 0.31±0.21
  Tumor/Liver ratio: 37.14±3.65
  Tumor/Salivary ratio: 27.47±4.33
[2]; 120 min p.i.
  Blood uptake: 3.07±2.7 %ID/g
  Bone uptake: 0.34±0.21 %ID/g
  Brain uptake: 0.06±0.04 %ID/g
  Heart uptake: 0.58±0.28 %ID/g
  Kidney uptake: 127.83 ± 27.94 %ID/g
  Liver uptake: 1.08±0.71 %ID/g
  Lung uptake: 1.23±0.47 %ID/g
  Muscle uptake: 0.19±0.08 %ID/g
  Salivary uptake: 1.46±1.05 %ID/g
  Small int (small intestine) uptake: 0.46±0.25 %ID/g
  Spleen uptake: 2.38±1.75 %ID/g
  Stomach uptake: 0.42±0.17 %ID/g
  Tumor uptake: 40.11 ± 9.24 %ID/g
